Columns and labels:
[1] = tested on: Desulfotomaculum nigrificans (ATCC 19858); test: D. nigrificans growth after biocide exposure in 0.1 wt % polyacrylamide; type: cell-based; set-up: key to D. nigrificans Growth Results / D. nigrificans Growth Results, Neutral Control: positive (+); negative (NEG)
Description: Example 2 illustrates the biocidal efficacy of peracetic acid, compared with glutaraldehyde, against another strain of sulfur-reducing bacteria, Desulfotomaculum nigrificans, present in an aqueous solution also containing 0.1 wt % polyacrylamide polymer. A range of peracetic acid and glutaraldehyde concentrations were evaluated for biocidal efficacy: 1, 5, 10, 25, 50, 75, 100, 200 and 300 ppm peracetic acid and the same concentrations for glutaraldehyde (except that 300 ppm was omitted).
The dilute aqueous polyacrylamide was prepared using an aqueous 50 wt % polyacrylamide solution (Sigma-Aldrich, St. Louis, Mo.) and diluting the polyacrylamide with deionized water to obtain 0.1 wt % polyacrylamide in water. The peracetic acid was Vigor Ox® SP-15 antimicrobial agent, containing about 15-17 wt % peracetic acid, 9-11 wt % hydrogen peroxide and 33-38 wt % acetic acid in water (FMC Corporation, Philadelphia, Pa.), and this peracetic acid solution was diluted to the desired concentration within the range 1 to 300 ppm peracetic acid for the various evaluations. The glutaraldehyde used in this Example 2 was a 50 wt % glutaraldehyde solution in water (Alfa Aesar, Ward Hill, Mass.), diluted with deionized water to the desired concentration within the range 1 to 200 ppm for the evaluations.
The bacterial strain used in this Example 2 was the sulfur-reducing bacterium Desulfotomaculum nigrificans (ATCC 19858 from American Type Culture Collection, Manassas, Va.). A working inoculum for each of the three studies described below was prepared by the following procedure. Baar's medium for sulfate reducers was inoculated with D. nigrificans from a cryogenic tube, grown at 50° C. anaerobically for a period sufficient to observe good growth of the culture (evident by blackening of the tube), between 2-7 days. This D. nigrificans culture was used as the working inoculum for each of the studies described below.
The methodology used in this Example 2 was as follows. A sterilized screw-cap tube containing 9.5-10 ml 0.1 wt % polyacrylamide was dosed with an appropriate amount of peracetic acid (or glutaraldehyde) to provide the desired peracetic acid (or glutaraldehyde) concentration (e.g., 1 to 300 ppm peracetic acid) in 10 ml 0.1 wt % polyacrylamide required for the study. The tubes were then vortex mixed and 0.1 ml D. nigrificans inoculum was added and again vortex mixed. The initial inoculation level was estimated as about 2.6×10^6 CFU/tube. Timing of the exposure period (e.g., 1 minute to 1 day) was begun when the D. nigrificans inoculum was added.
After the exposure period had elapsed, 1 ml of the treated mixture was added to a second tube containing 9 ml of Dey-Engley (D/E) neutralizing broth and vortex mixed. After about 5-8 minutes had elapsed, 1 ml of the neutralized solution was added to yet another tube containing 9 ml of Baar's modified medium for sulfate reducers. This tube was vortex mixed and then incubated anaerobically at 50° C., with the screw cap loosened, using an AnaeroPack (Mitsubishi Gas Chemical America, Inc., New York, N.Y.) in an anaerobic jar.
Growth controls were also carried out in the studies of this Example 2, using the following procedure. A screw-cap tube containing 10 ml of 0.1 wt % polyacrylamide was inoculated with 0.1 ml of D. nigrificans culture and then diluted in D/E neutralizing broth after the exposure period, vortex mixed, and then diluted in Baar's medium as described above. The control tubes were incubated at 50° C., also as described above, and monitored for growth after two days.
Neutralizing controls were also carried out for the peracetic acid and glutaraldehyde treatment agents to confirm that D/E neutralizing broth (which contains sodium bisulfite and […] among its neutralizing agents) was capable of neutralizing either peracetic acid or glutaraldehyde at the highest concentration used in each study. […]

[2] = tested on: Desulfovibrio desulfuricans (vulgaris) (ATCC 7757); test: Biocidal efficacy against sulfur-reducing bacteria in 0.1 wt % polyacrylamide (colony population analysis, CFU); type: cell-based; conditions: not a side-by-side comparative study
Description: Example 1 illustrates the biocidal efficacy of peracetic acid, compared with glutaraldehyde, against a strain of sulfur-reducing bacteria, Desulfovibrio desulfuricans (vulgaris), present in an aqueous solution also containing 0.1 wt % polyacrylamide polymer. A range of peracetic acid and glutaraldehyde concentrations were evaluated for biocidal efficacy: 5, 10, 30, 150 and 300 ppm peracetic acid and 25 and 500 ppm glutaraldehyde.
The dilute aqueous polyacrylamide was prepared using a 50 wt % polyacrylamide solution in water, with the polyacrylamide having an average molecular weight ˜10,000 (Aldrich No. 434949, Sigma-Aldrich, St. Louis, Mo.). The peracetic acid was Vigor Ox® SP-15 antimicrobial agent, containing about 15-17 wt % peracetic acid, 9-11 wt % hydrogen peroxide and 33-38 wt % acetic acid in water (FMC Corporation, Philadelphia, Pa.), and this peracetic acid solution was diluted to 5, 10, 30, 150 and 300 ppm peracetic acid for the various evaluations. The glutaraldehyde used in this Example 1 was a 25 wt % glutaraldehyde solution in water (Sigma-Aldrich No. G4004, Sigma-Aldrich, St. Louis, Mo.), diluted to either 25 or 500 ppm for the evaluations. […]
Peracetic acid and glutaraldehyde were next evaluated for biocidal efficacy against the sulfur-reducing bacterium Desulfovibrio vulgaris. […]

[3] = at 25° C.; cited from earlier work
[4] = first study, 1 ppm, 1 minute exposure
[5] = first study, 1 ppm, 1 hour exposure
[6] = first study, 1 ppm, 1 day exposure
[7] = first study, 5 ppm, 1 minute exposure
[8] = first study, 5 ppm, 1 hour exposure
[9] = first study, 5 ppm, 1 day exposure
[10] = first study, 10 ppm, 1 minute exposure
[11] = first study, 10 ppm, 1 hour exposure
[12] = first study, 10 ppm, 1 day exposure
[13] = first study, 25 ppm, 1 minute exposure
[14] = first study, 25 ppm, 1 hour exposure
[15] = first study, 25 ppm, 1 day exposure
[16] = first study, 50 ppm biocide neutralized in D/E neutralizing broth before inoculation
[17] = first study, 50 ppm, 1 minute exposure
[18] = first study, 50 ppm, 1 hour exposure
[19] = first study, 50 ppm, 1 day exposure
[20] = second study, 50 ppm, 10 minutes exposure
[21] = second study, 50 ppm, 1 hour exposure
[22] = second study, 50 ppm, 1 day exposure
[23] = second study, 75 ppm, 10 minutes exposure
[24] = second study, 75 ppm, 1 hour exposure
[25] = second study, 75 ppm, 1 day exposure
[26] = second study, 100 ppm, 10 minutes exposure
[27] = second study, 100 ppm, 1 hour exposure
[28] = second study, 100 ppm, 1 day exposure
[29] = second study, 200 ppm biocide neutralized in D/E neutralizing broth before inoculation
[30] = second study, 200 ppm, 10 minutes exposure
[31] = second study, 200 ppm, 1 hour exposure
[32] = second study, 200 ppm, 1 day exposure

For O=CCCCC=O [Glutaraldehyde, glutaraldehyde, reference compound], the “D. nigrificans Growth Results” value [1, 4] was “+”, the “D. nigrificans Growth Results” value [1, 5] was “+” and the “D. nigrificans Growth Results” value [1, 6] was “+”. The “D. nigrificans Growth Results” value [1, 7] was “+”, the “D. nigrificans Growth Results” value [1, 8] was “+” and the “D. nigrificans Growth Results” value [1, 9] was “+”. The “D. nigrificans Growth Results” value [1, 10] was “+”, the “D. nigrificans Growth Results” value [1, 11] was “+” and the “D. nigrificans Growth Results” value [1, 12] was “+”. The “D. nigrificans Growth Results” value [1, 13] was “+”, the “D. nigrificans Growth Results” value [1, 14] was “+” and the “D. nigrificans Growth Results” value [1, 15] was “+”. For the same compound, the “D. nigrificans Growth Results, Neutral Control” value [1, 16] was “+”, the “D. nigrificans Growth Results” value [1, 17] was “+” and the “D. nigrificans Growth Results” value [1, 18] was “+”. The “D. nigrificans Growth Results” value [1, 19] was “+”, the “biocidal control of D. nigrificans” value ([1]; first study, any of the concentrations (1 to 50 ppm) or exposure times (1 minute, 1 hour, 1 day)) was “no biocidal control” and the “D. nigrificans Growth Results” value [1, 20] was “+”. The “D. nigrificans Growth Results” value [1, 21] was “+”, the “D. nigrificans Growth Results” value [1, 22] was “+” and the “D. nigrificans Growth Results” value [1, 23] was “+”. The “D. nigrificans Growth Results” value [1, 24] was “+”, the “D. nigrificans Growth Results” value [1, 25] was “+” and the “D. nigrificans Growth Results” value [1, 26] was “+”. For the same compound, the “D. nigrificans Growth Results” value [1, 27] was “+”, the “D. nigrificans Growth Results” value [1, 28] was “+” and the “D. nigrificans Growth Results, Neutral Control” value [1, 29] was “+”. The “D. nigrificans Growth Results” value [1, 30] was “+”, the “D. nigrificans Growth Results” value [1, 31] was “+” and the “D. nigrificans Growth Results” value [1, 32] was “+”. The “biocidal control of D. nigrificans” value ([1]; second study, any of the concentrations (50 to 200 ppm) or exposure times (10 minutes, 1 hour, 1 day)) was “no biocidal control”.

With Peracetic acid the “biocidal efficacy against D. vulgaris compared with the glutaraldehyde treatment” value [2] was “at least equivalent in performance”, the “biocidal control of D. nigrificans” value ([1]; first study, 1 ppm, 5 ppm or 10 ppm, any of the exposure times) was “no biocidal control” and the “D. nigrificans Growth Results” value [1, 4] was “+”. For the same compound, the “D. nigrificans Growth Results” value [1, 5] was “+”, the “D. nigrificans Growth Results” value [1, 6] was “+” and the “D. nigrificans Growth Results” value [1, 7] was “+”. The “D. nigrificans Growth Results” value [1, 8] was “+”, the “D. nigrificans Growth Results” value [1, 9] was “+” and the “D. nigrificans Growth Results” value [1, 10] was “+”. For the same compound, the “D. nigrificans Growth Results” value [1, 11] was “+”, the “D. nigrificans Growth Results” value [1, 12] was “+” and the “biocidal control of D. nigrificans” value ([1]; first study, 25 ppm and 50 ppm, 1 day exposure) was “provided biocidal control”. For the same compound, the “D. nigrificans Growth Results” value [1, 13] was “+”, the “D. nigrificans Growth Results” value [1, 14] was “+” and the “D. nigrificans Growth Results” value [1, 15] was “NEG”. For the same compound, the “D. nigrificans Growth Results, Neutral Control” value [1, 16] was “+”, the “D. nigrificans Growth Results” value [1, 17] was “+” and the “D. nigrificans Growth Results” value [1, 18] was “NEG and +”. For the same compound, the “D. nigrificans Growth Results” value [1, 19] was “NEG”, the “biocidal activity against D. nigrificans” value ([1]; first study, 50 ppm, one hour, NEG for one of the two replicates) was “some biocidal activity” and the “biocidal control of D. nigrificans” value ([1]; second study, 50, 75, 100 and 200 ppm, 1 day exposure) was “provided biocidal control”. For the same compound, the “D. nigrificans Growth Results” value [1, 20] was “+”, the “D. nigrificans Growth Results” value [1, 21] was “+” and the “D. nigrificans Growth Results” value [1, 22] was “NEG”. For the same compound, the “D. nigrificans Growth Results” value [1, 23] was “+”, the “D. nigrificans Growth Results” value [1, 24] was “NEG” and the “D. nigrificans Growth Results” value [1, 25] was “NEG”. For the same compound, the “D. nigrificans Growth Results” value [1, 26] was “+”, the “D. nigrificans Growth Results” value [1, 27] was “NEG and +” and the “D. nigrificans Growth Results” value [1, 28] was “NEG”. The “D. nigrificans Growth Results, Neutral Control” value [1, 29] was “+”, the “D. nigrificans Growth Results” value [1, 30] was “+” and the “D. nigrificans Growth Results” value [1, 31] was “NEG”. For the same compound, the “D. nigrificans Growth Results” value [1, 32] was “NEG”, the “biocidal activity against D. nigrificans” value ([1]; second study, 10 minutes exposure, any of the concentrations) was “no biocidal activity” and the “biocidal activity against D. nigrificans” value ([1]; second study, 1 hour exposure, 75 ppm, 100 ppm (1 of 2 replicates), 200 ppm) was “demonstrated biocidal activity”. The “D. nigrificans Growth Results” value ([1]; third study, 100 ppm, 10 minutes exposure) was “+”, the “D. nigrificans Growth Results” value ([1]; third study, 100 ppm, 30 minutes exposure) was “+ and NEG” and the “D. nigrificans Growth Results” value ([1]; third study, 100 ppm, 60 minutes exposure) was “NEG and +”. The “D. nigrificans Growth Results” value ([1]; third study, 200 ppm, 10 minutes exposure) was “+”, the “D. nigrificans Growth Results” value ([1]; third study, 200 ppm, 30 minutes exposure) was “NEG” and the “D. nigrificans Growth Results” value ([1]; third study, 200 ppm, 60 minutes exposure) was “NEG”. For the same compound, the “D. nigrificans Growth Results, Neutral Control” value ([1]; third study, 300 ppm peracetic acid neutralized in D/E neutralizing broth before inoculation) was “+”, the “D. nigrificans Growth Results” value ([1]; third study, 300 ppm, 10 minutes exposure) was “NEG” and the “D. nigrificans Growth Results” value ([1]; third study, 300 ppm, 30 minutes exposure) was “NEG”. The “D. nigrificans Growth Results” value ([1]; third study, 300 ppm, 60 minutes exposure) was “NEG and +”, the “biocidal activity against D. nigrificans” value ([1]; third study, 30 minutes, 100 ppm (2 of 3 replicates), 200 ppm, 300 ppm) was “demonstrated biocidal activity” and the “biocidal control of D. nigrificans” value ([1]; third study, 60 minutes, 100 ppm (2 of 3 replicates), 200 ppm, 300 ppm (2 of 3 replicates)) was “provided biocidal control”. The “biocidal activity against D. nigrificans” value ([1]; third study, ten minutes, 100 and 200 ppm) was “did not exhibit biocidal activity”, the “biocidal control of D. nigrificans” value ([1]; third study, ten minutes, 300 ppm) was “exhibited biocidal control” and the pKa [3] was “about 8.2”.

From patent US9018142B2, “Oil-field biocide method utilizing a peracid” (PeroxyChem LLC, priority 2008, dated 2015)
